Source: patent US8173636B2, “Hydroxylthienoquinolones and related compounds as anti-infective agents” (Achillion Pharmaceuticals, Inc., priority 2009, dated 2012)
≈ marks a conversion by molar mass, not a printed value.

Assays:
[1] = system: fluoroquinolone-resistant S. aureus ATCC 700699; assay: Minimum inhibitory concentration (MIC) assay, broth microdilution, MRSA; type: cell-based; details: Staphylococcus aureus; fluoroquinolone-resistant S. aureus ATCC 700699; Table I; read-out: MRSA MIC
Experimental: (§1) The antimicrobial activity of the compounds of the invention may be evaluated by a number of methods, including the following visual minimum inhibitory concentration (MIC) assay. This assay determines the minimum concentration of compound required to inhibit growth of a bacterial strain.
(§2) Whole-cell antibacterial activity is determined by broth microdilution using conditions recommended by the NCCLS (see National Committee for Clinical Laboratory Standards. 2001. Performance standards for antimicrobial susceptibility testing: 11th informational supplement. Vol. 21, no. 1, M100-S11. National Committee for Clinical Laboratory Standards, Wayne, Pa.). Test compounds are dissolved in DMSO and diluted 1:50 in Mueller-Hinton II broth (Becton-Dickinson) to produce a 256 μg/ml stock solution. In a 96-well microtiter plate, the compound solution is serially two-fold diluted in Mueller-Hinton II broth. After the compounds are diluted, a 50 μl aliquot of the test organism (˜1×10^6 cfu/mL) is added to each well of the microtiter plate. The final test concentrations ranges from 0.125-128 μg/mL. Inoculated plates are incubated in ambient air at 37° C. for 18 to 24 hours. The organisms selected for testing included laboratory strains S. aureus ATCC 29213 and E. coli ATCC 25922 (strains purchased from American Type Culture Collection, Manassas, Va.) m, S. aureus FQR700699, and Paeruginosa 27853. The minimum inhibitory concentration (MIC) is determined as the lowest concentration of compound that inhibited visible growth of the test organism.

S. aureus ATCC 29213 = assay: Minimum inhibitory concentration (MIC) assay, broth microdilution, MSSA; type: cell-based; details: Staphylococcus aureus, Table I
Experimental: as §1, §2

## COc1c(N2CCCC(C(N)=O)C2)c(F)cc2c(=O)c3c(O)c(C#N)sc3n(C3CC3)c12 (stereo not shown) [Cmp 37, 1-(2-cyano-9-cyclopropyl-6-fluoro-3-hydroxyl-8-methoxy-4-oxo-4,9-dihydrothieno[2,3-b]quinolin-7-yl)piperidine-3-carboxamide]
[1]
  MIC: 0.25 µg/mL (≈ 0.548 µM)
S. aureus ATCC 29213
  MIC: 0.03 µg/mL (≈ 0.0657 µM)

## COc1c(C2=CCNCC2)c(F)cc2c(=O)c3c(O)c(C#N)sc3n(C3CC3)c12 [Cmp 40]
[1]
  MIC: 4 µg/mL (≈ 9.72 µM)
S. aureus ATCC 29213
  MIC: 0.5 µg/mL (≈ 1.22 µM)

## CNC(C)(C)[C@@H]1CCN(c2c(F)cc3c(=O)c4c(O)c(C#N)sc4n(C4CC4)c3c2OC)C1 [Cmp 34, (R)-9-cyclopropyl-6-fluoro-3-hydroxyl-8-methoxy-7-(3-(2-(methylamino)propan-2-yl)pyrrolidin-1-yl)-4-oxo-4,9-dihydrothieno[2,3-b]quinoline-2-carbonitrile]
[1]
  MIC: 0.5 µg/mL (≈ 1.06 µM)
S. aureus ATCC 29213
  MIC: 0.06 µg/mL (≈ 0.128 µM)

## COc1c(-c2cn[nH]c2)c(F)cc2c(=O)c3c(n(C4CC4)c12)SC(C#N)C3=O (stereo not shown) [Cmp 51, 9-cyclopropyl-6-fluoro-8-methoxy-3,4-dioxo-7-(1H-pyrazol-4-yl)-2,3,4,9-tetrahydrothieno[2,3-b]quinoline-2-carbonitrile]
[1]
  MIC: 0.5 µg/mL (≈ 1.26 µM)
S. aureus ATCC 29213
  MIC: 0.03 µg/mL (≈ 0.0757 µM)

## COc1c(N2CCC(c3ncn[nH]3)CC2)c(F)cc2c(=O)c3c(n(C4CC4)c12)SC(C#N)C3=O (stereo not shown) [Cmp 48, 7-(4-(1H-1,2,4-triazol-5-yl)piperidin-1-yl)-9-cyclopropyl-6-fluoro-8-methoxy-3,4-dioxo-2,3,4,9-tetrahydrothieno [2,3-b]quinoline-2-carbonitrile]
[1]
  MIC: 0.25 µg/mL (≈ 0.52 µM)
S. aureus ATCC 29213
  MIC: 0.03 µg/mL (≈ 0.0624 µM)

## CN(C)c1ccc2c(=O)c3c(O)c(C#N)sc3n(C3CC3)c2c1OC(F)F [Cmp 17, 9-cyclopropyl-8-(difluoromethoxy)-7-(dimethylamino)-3-hydroxyl-4-oxo-4,9-dihydrothieno[2,3-b]quinoline-2-carbonitrile]
[1]
  MIC: 64 µg/mL (≈ 164 µM)
S. aureus ATCC 29213
  MIC: 4 µg/mL (≈ 10.2 µM)

## COc1c(N2CC[C@H](O)C2)c(F)cc2c(=O)c3c(O)c(C#N)sc3n(C3CC3)c12 [Cmp 23, (S)-9-cyclopropyl-6-fluoro-3-hydroxyl-7-(3-hydroxyl-pyrrolidin-1-yl)-8-methoxy-4-oxo-4,9-dihydrothieno [2,3-b]quinoline-2-carbonitrile]
[1]
  MIC: 0.5 µg/mL (≈ 1.2 µM)
S. aureus ATCC 29213
  MIC: 0.03 µg/mL (≈ 0.0722 µM)

## N#CCN1CCN(c2c(F)cc3c(=O)c4c(O)c(C#N)sc4n(C4CC4)c3c2OC(F)F)CC1 [Cmp 18, 7-(4-(cyanomethyl)piperazin-1-yl)-9-cyclopropyl-8-(difluoromethoxy)-6-fluoro-3-hydroxyl-4-oxo-4,9-dihydrothieno [2,3-b]quinoline-2-carbonitrile]
[1]
  MIC: 4 µg/mL (≈ 8.17 µM)
S. aureus ATCC 29213
  MIC: 0.13 µg/mL (≈ 0.266 µM)

## COc1c(N2CC[C@@H](C(C)(C)N)C2)c(F)cc2c(=O)c3c(O)csc3n(C3CC3)c12 [Cmp 6, (R)-7-(3-(2-aminopropan-2-yl)pyrrolidin-1-yl)-9-cyclopropyl-6-fluoro-3-hydroxyl-8-methoxythieno[2,3-b]quinolin-4(9H)-one]
[1]
  MIC: 32 µg/mL (≈ 74.2 µM)
S. aureus ATCC 29213
  MIC: 2 µg/mL (≈ 4.63 µM)

## CN[C@@H](C)[C@@H]1CCN(c2c(F)cc3c(=O)c4c(O)c(C#N)sc4n(C4CC4)c3c2OC)C1 [Cmp 31, 9-cyclopropyl-6-fluoro-3-hydroxyl-8-methoxy-7-((R)-3-((S)-1-(methylamino)ethyl)pyrrolidin-1-yl)-4-oxo-4,9-dihydrothieno [2,3-b]quinoline-2-carbonitrile]
[1]
  MIC: 0.25 µg/mL (≈ 0.548 µM)
S. aureus ATCC 29213
  MIC: 0.03 µg/mL (≈ 0.0657 µM)

## COc1c(N2CCCC(c3ncn[nH]3)C2)c(F)cc2c(=O)c3c(n(C4CC4)c12)SC(C#N)C3=O (stereo not shown) [Cmp 53, 7-(3-(1H-1,2,4-triazol-5-yl)piperidin-1-yl)-9-cyclopropyl-6-fluoro-8-methoxy-4-dioxo-2,3,4,9-tetrahydrothieno [2,3-b]quinoline-2-carbonitrile]
[1]
  MIC: 2 µg/mL (≈ 4.16 µM)
S. aureus ATCC 29213
  MIC: 0.13 µg/mL (≈ 0.271 µM)

## COc1c(N2CCN(C)CC2)c(F)cc2c(=O)c3c(O)c(C#N)sc3n(C3CC3)c12 [Cmp 26, 9-cyclopropyl-6-fluoro-3-hydroxyl-8-methoxy-7-(4-methylpiperazin-1-yl)-4-oxo-4,9-dihydrothieno[2,3-b] quinoline-2-carbonitrile]
[1]
  MIC: 1 µg/mL (≈ 2.33 µM)
S. aureus ATCC 29213
  MIC: 0.13 µg/mL (≈ 0.303 µM)

## COc1c(N2CCCC(CN)C2)c(F)cc2c(=O)c3c(O)c(C(N)=O)sc3n(C3CC3)c12 (stereo not shown) [Cmp 65, 7-(3-(aminomethyl)piperidin-1-yl)-9-cyclopropyl-6-fluoro-3-hydroxyl-8-methoxy-4-oxo-4,9-dihydrothieno [2,3-b]quinoline-2-carboxamide]
[1]
  MIC: 2 µg/mL (≈ 4.34 µM)
S. aureus ATCC 29213
  MIC: 0.5 µg/mL (≈ 1.09 µM)

## CO/N=C1\CN(c2c(F)cc3c(=O)c4c(O)c(C#N)sc4n(C4CC4)c3c2OC)CC1CN (stereo not shown) [Cmp 39, (Z)-7-(3-(aminomethyl)-4-(methoxyimino)pyrrolidin-1-yl)-9-cyclopropyl-6-fluoro-3-hydroxyl-8-methoxy-4-oxo-4,9-dihydrothieno[2,3-b]quinoline-2-carbonitrile]
[1]
  MIC: 1 µg/mL (≈ 2.12 µM)
S. aureus ATCC 29213
  MIC: 0.13 µg/mL (≈ 0.276 µM)

## COc1c(N2C[C@@H]3CCCN[C@@H]3C2)c(F)cc2c(=O)c3c(O)c(C#N)sc3n(C3CC3)c12 [Cmp 38, 9-cyclopropyl-6-fluoro-3-hydroxyl-8-methoxy-4-oxo-7-((4aS,7aS)-tetrahydro-1H-pyrrolo[3,4-b]pyridin-6(2H,7H,7aH)-yl)-4,9-dihydrothieno[2,3-b]quinoline-2-carbonitrile]
[1]
  MIC: 8 µg/mL (≈ 17.6 µM)
S. aureus ATCC 29213
  MIC: 0.5 µg/mL (≈ 1.1 µM)

## COc1c(N2CCC(C(F)(F)F)CC2)c(F)cc2c(=O)c3c(n(C4CC4)c12)SC(C#N)C3=O (stereo not shown) [Cmp 43, 9-cyclopropyl-6-fluoro-8-methoxy-3,4-dioxo-7-(4-(trifluoromethyl)piperidin-1-yl)-2,3,4,9-tetrahydrothieno [2,3-b]quinoline-2-carbonitrile]
[1]
  MIC: 8 µg/mL (≈ 16.6 µM)
S. aureus ATCC 29213
  MIC: 1 µg/mL (≈ 2.08 µM)

## N#Cc1sc2c(c1O)c(=O)c1cc(F)c(N3CCNCC3)cc1n2C1CC1 [Cmp 21, 9-cyclopropyl-6-fluoro-3-hydroxyl-4-oxo-7-(piperazin-1-yl)-4,9-dihydrothieno[2,3-b]quinoline-2-carbonitrile]
[1]
  MIC: 2 µg/mL (≈ 5.2 µM)
S. aureus ATCC 29213
  MIC: 0.13 µg/mL (≈ 0.338 µM)

## COc1c(N2CCNCC2)c(F)cc2c(=O)c3c(O)c(-c4ccc(F)c(F)c4)sc3n(C3CC3)c12 [Cmp 15, 9-cyclopropyl-2-(3,4-difluorophenyl)-6-fluoro-3-hydroxyl-8-methoxy-7-(piperazin-1-yl)thieno[2,3-b]quinolin-4(9H)-one]
[1]
  MIC: 4 µg/mL (≈ 7.98 µM)
S. aureus ATCC 29213
  MIC: 8 µg/mL (≈ 16 µM)

## COc1c(N2CCC(C(N)=O)CC2)c(F)cc2c(=O)c3c(n(C4CC4)c12)SC(C#N)C3=O (stereo not shown) [Cmp 45, 1-(2-cyano-9-cyclopropyl-6-fluoro-8-methoxy-3,4-dioxo-2,3,4,9-tetrahydrothieno[2,3-b]quinolin-7-yl)piperidine-4-carboxamide]
[1]
  MIC: 0.5 µg/mL (≈ 1.1 µM)
S. aureus ATCC 29213
  MIC: 0.03 µg/mL (≈ 0.0657 µM)

## COc1c(N2C[C@@H]3CCCN[C@@H]3C2)ccc2c(=O)c3c(O)c(C#N)sc3n(C3CC3)c12 [Cmp 27, 9-cyclopropyl-3-hydroxyl-8-methoxy-4-oxo-7-((4aS,7aS)-tetrahydro-1H-pyrrolo[3,4-b]pyridin-6(2H,7H,7aH)-yl)-4,9-dihydrothieno[2,3-b]quinoline-2-carbonitrile]
[1]
  MIC: 8 µg/mL (≈ 18.3 µM)
S. aureus ATCC 29213
  MIC: 0.5 µg/mL (≈ 1.15 µM)

## COc1c(-c2ccnc(N3CCNCC3)c2)c(F)cc2c(=O)c3c(n(C4CC4)c12)SC(C#N)C3=O (stereo not shown) [Cmp 50, 9-cyclopropyl-6-fluoro-8-methoxy-3,4-dioxo-7-(2-(piperazin-1-yl)pyridin-4-yl)-2,3,4,9-tetrahydrothieno [2,3-b]quinoline-2-carbonitrile]
[1]
  MIC: 1 µg/mL (≈ 2.03 µM)
S. aureus ATCC 29213
  MIC: 0.06 µg/mL (≈ 0.122 µM)

## CCC(=O)c1sc2c(c1O)c(=O)c1cc(F)c(N3CC[C@@H](C(C)(C)N)C3)c(OC)c1n2C1CC1 [Cmp 62, (R)-7-(3-(2-aminopropan-2-yl)pyrrolidin-1-yl)-9-cyclopropyl-6-fluoro-3-hydroxyl-8-methoxy-2-propionylthieno [2,3-b]quinolin-4(9H)-one]
[1]
  MIC: 1 µg/mL (≈ 2.05 µM)
S. aureus ATCC 29213
  MIC: 0.5 µg/mL (≈ 1.03 µM)

## COc1c(N2CCN(CC#N)CC2)c(F)cc2c(=O)c3c(O)c(C#N)sc3n(C3CC3)c12 [Cmp 55, 7-(4-(cyanomethyl)piperazin-1-yl)-9-cyclopropyl-6-fluoro-3-hydroxyl-8-methoxy-4-oxo-4,9-dihydrothieno [2,3-b]quinoline-2-carbonitrile]
[1]
  MIC: 0.5 µg/mL (≈ 1.1 µM)
S. aureus ATCC 29213
  MIC: 0.06 µg/mL (≈ 0.132 µM)

## COc1c(N2CCC(N)CC2)c(F)cc2c(=O)c3c(O)c(C#N)sc3n(C3CC3)c12 [Cmp 29, 7-(4-aminopiperidin-1-yl)-9-cyclopropyl-6-fluoro-3-hydroxyl-8-methoxy-4-oxo-4,9-dihydrothieno[2,3-b]quinoline-2-carbonitrile]
[1]
  MIC: 0.5 µg/mL (≈ 1.17 µM)
S. aureus ATCC 29213
  MIC: 0.03 µg/mL (≈ 0.07 µM)

## COc1c(N2CC[C@@H](C(C)(C)N)C2)c(F)cc2c(=O)c3c(O)c(C(N)=O)sc3n(C3CC3)c12 [Cmp 32, (R)-7-(3-(2-aminopropan-2-yl)pyrrolidin-1-yl)-9-cyclopropyl-6-fluoro-3-hydroxyl-8-methoxy-4-oxo-4,9-dihydrothieno [2,3-b]quinoline-2-carboxamide]
[1]
  MIC: 0.5 µg/mL (≈ 1.05 µM)
S. aureus ATCC 29213
  MIC: 0.13 µg/mL (≈ 0.274 µM)

## N#Cc1sc2c(c1O)c(=O)c1cc(F)c(N3CCNCC3)c(OC(F)F)c1n2C1CC1 [Cmp 3, 9-cyclopropyl-8-(difluoromethoxy)-6-fluoro-3-hydroxyl-4-oxo-7-(piperazin-1-yl)-4,9-dihydrothieno[2,3-b]quinoline-2-carbonitrile]
[1]
  MIC: 4 µg/mL (≈ 8.88 µM)
S. aureus ATCC 29213
  MIC: 0.25 µg/mL (≈ 0.555 µM)
